Experimental data as given in patent US9452986B2, “6-heteroaryloxy- or 6-aryloxy-quinoline-2-carboxamides and method of use” (AbbVie Inc., priority 2014, dated 2016).

Target: recombinant human Nav1.7 (Homo sapiens (Human), UniProt Q15858)
Test: FRET-based membrane potential assay, recombinant human sodium channel Nav1.7
Assay type: cell-based
Conditions: FRET-Membrane Potential Nav1.7 IC50
Summary of the method: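 Channel activation used veratridine at its EC80, set by a dilution curve each experiment, together with Leiurus scorpion venom, added 3 min after compound. Membrane-potential ratio signals from FLIPR Tetra in HEPES-buffered HBSS were fitted to a four-parameter Hill equation for percent inhibition and IC50.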

Chain of recombinant human Nav1.7 (Q15858 whole entry): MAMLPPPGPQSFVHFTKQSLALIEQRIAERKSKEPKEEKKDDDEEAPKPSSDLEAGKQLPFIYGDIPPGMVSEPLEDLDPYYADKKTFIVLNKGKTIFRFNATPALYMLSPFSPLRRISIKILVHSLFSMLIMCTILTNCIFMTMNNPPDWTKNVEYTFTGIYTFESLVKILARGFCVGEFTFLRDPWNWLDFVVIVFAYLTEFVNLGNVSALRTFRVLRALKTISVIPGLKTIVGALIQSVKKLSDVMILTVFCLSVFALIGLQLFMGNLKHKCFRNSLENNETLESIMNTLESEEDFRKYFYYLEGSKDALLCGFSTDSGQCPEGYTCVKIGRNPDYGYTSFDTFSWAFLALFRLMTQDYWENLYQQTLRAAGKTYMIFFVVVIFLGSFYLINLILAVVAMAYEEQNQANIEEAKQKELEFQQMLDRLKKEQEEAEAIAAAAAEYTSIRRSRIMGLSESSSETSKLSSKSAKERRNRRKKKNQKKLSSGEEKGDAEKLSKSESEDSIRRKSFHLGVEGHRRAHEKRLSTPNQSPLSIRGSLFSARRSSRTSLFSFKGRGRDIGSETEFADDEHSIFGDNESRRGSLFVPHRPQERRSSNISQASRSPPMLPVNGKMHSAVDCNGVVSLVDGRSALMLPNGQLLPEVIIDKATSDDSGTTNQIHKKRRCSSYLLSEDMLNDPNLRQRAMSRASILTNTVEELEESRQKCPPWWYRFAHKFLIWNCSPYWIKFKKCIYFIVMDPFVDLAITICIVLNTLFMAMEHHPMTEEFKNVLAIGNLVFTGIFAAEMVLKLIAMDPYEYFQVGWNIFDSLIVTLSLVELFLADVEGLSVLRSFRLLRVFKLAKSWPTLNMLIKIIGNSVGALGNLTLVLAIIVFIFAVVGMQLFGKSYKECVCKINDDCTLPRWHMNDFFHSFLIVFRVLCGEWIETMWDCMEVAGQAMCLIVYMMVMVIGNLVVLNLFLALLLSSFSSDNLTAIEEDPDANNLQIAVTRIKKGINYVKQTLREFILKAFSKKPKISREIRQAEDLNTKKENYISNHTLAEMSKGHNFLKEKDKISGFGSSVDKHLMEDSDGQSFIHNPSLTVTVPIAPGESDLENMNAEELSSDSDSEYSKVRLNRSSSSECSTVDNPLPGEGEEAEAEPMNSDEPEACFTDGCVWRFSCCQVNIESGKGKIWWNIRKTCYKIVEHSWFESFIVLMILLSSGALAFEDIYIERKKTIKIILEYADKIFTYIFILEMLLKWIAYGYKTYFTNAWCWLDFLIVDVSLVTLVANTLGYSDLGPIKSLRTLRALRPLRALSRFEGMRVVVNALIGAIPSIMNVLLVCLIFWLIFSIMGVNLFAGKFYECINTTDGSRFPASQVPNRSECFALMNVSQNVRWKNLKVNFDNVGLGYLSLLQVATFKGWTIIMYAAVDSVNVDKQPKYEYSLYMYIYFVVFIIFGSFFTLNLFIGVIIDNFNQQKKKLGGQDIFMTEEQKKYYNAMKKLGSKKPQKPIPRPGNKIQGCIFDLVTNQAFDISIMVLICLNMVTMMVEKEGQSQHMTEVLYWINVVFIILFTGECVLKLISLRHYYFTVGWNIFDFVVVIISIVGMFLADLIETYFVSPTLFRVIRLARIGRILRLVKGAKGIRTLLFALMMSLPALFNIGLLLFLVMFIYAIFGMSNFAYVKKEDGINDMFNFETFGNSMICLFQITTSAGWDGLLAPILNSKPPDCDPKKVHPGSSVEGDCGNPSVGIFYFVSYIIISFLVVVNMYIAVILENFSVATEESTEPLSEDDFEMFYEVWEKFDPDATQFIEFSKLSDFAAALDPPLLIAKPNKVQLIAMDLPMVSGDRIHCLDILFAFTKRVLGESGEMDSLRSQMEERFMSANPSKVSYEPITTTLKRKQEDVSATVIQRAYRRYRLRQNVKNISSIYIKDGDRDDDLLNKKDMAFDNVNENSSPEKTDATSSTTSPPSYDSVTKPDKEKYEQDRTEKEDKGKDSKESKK

With `O=C(c1ccc2cc(Oc3ccc(C(F)(F)F)cn3)ccc2n1)N1CC[C@@H](O)[C@H](F)C1` (relative stereo) [Example 195, [trans-3-fluoro-4-hydroxypiperidin-1-yl](6-{[5-(trifluoromethyl)pyridin-2-yl]oxy}quinolin-2-yl)methanone] the IC50 was 7600 nM.

Same assay, conditions: HEK293 cells stably expressing recombinant human Nav1.7; veratridine + scorpion venom depolarization; read-out: FRET-Membrane Potential Nav1.7 IC50

Compared with `O=C(NCCC(=O)N1CCCC1)c1ccc2cc(Oc3ccc(C(F)F)cn3)ccc2n1` [Example 460, 6-{[5-(difluoromethyl)pyridin-2-yl]oxy}-N-[3-oxo-3-(pyrrolidin-1-yl)propyl]quinoline-2-carboxamide], `O=C(NCCC(=O)N1CCCCC1)c1ccc2cc(Oc3ccc(C(F)F)cn3)ccc2n1` [Example 463, 6-{[5-(difluoromethyl)pyridin-2-yl]oxy}-N-[3-oxo-3-(piperidin-1-yl)propyl]quinoline-2-carboxamide] is 2.1-fold lower in IC50: 2400 nM for the first, 1120 nM for the second.

First: O=C(c1ccc2cc(Oc3ccc(C(F)(F)F)cn3)ccc2n1)N1CC(c2cccnc2)C1 [Example 217, [3-(pyridin-3-yl)azetidin-1-yl](6-{[5-(trifluoromethyl)pyridin-2-yl]oxy}quinolin-2-yl)methanone]
Second: COC1CN(C(=O)c2ccc3cc(Oc4ccc(C(F)(F)F)cn4)ccc3n2)C1 [Example 396, (3-methoxyazetidin-1-yl)(6-{[5-(trifluoromethyl)pyridin-2-yl]oxy}quinolin-2-yl)methanone]
The IC50 of the first is 1.9-fold lower: 1040 nM for the first, 1940 nM for the second. The first is the more potent here.

`O=C1NCC(=O)N2CCN(C(=O)c3ccc4cc(Oc5ccc(C(F)(F)F)cn5)ccc4n3)CC12` (stereo not drawn) [Example 171, 8-[(6-{[5-(trifluoromethyl)pyridin-2-yl]oxy}quinolin-2-yl)carbonyl]tetrahydro-2H-pyrazino[1,2-a]pyrazine-1,4(3H,6H)-dione] and `O=C(c1ccc2cc(Oc3ccc(C(F)(F)F)cn3)ccc2n1)N1CCN2C(=O)CCC2C1` (stereo not drawn) [Example 288, 2-[(6-{[5-(trifluoromethyl)pyridin-2-yl]oxy}quinolin-2-yl)carbonyl]hexahydropyrrolo[1,2-a]pyrazin-6(2H)-one] are within 1.5-fold of each other in IC50: 7950 nM for the first, 7880 nM for the second.

First: O=C(NC1CCS(=O)(=O)C1)c1ccc2cc(Oc3ncc(C(F)(F)F)cc3Cl)ccc2n1 (stereo not drawn) [Example 154, 6-{[3-chloro-5-(trifluoromethyl)pyridin-2-yl]oxy}-N-(1,1-dioxidotetrahydrothiophen-3-yl)quinoline-2-carboxamide]
Second: O=C(NC1CSC1)c1ccc2cc(Oc3ccc(C(F)(F)F)cn3)ccc2n1 [Example 499, N-(thietan-3-yl)-6-{[5-(trifluoromethyl)pyridin-2-yl]oxy}quinoline-2-carboxamide]
The IC50 of the first is 2.5-fold higher: 2320 nM for the first, 938 nM for the second. The second is the more potent here.

`O=C(c1ccc2cc(Oc3ccc(C(F)(F)F)cn3)ccc2n1)N1CC(O)C(F)C1` (stereo not drawn) [Example 292, (3-fluoro-4-hydroxypyrrolidin-1-yl)(6-{[5-(trifluoromethyl)pyridin-2-yl]oxy}quinolin-2-yl)methanone] and `CC1(O)CN(C(=O)c2ccc3cc(Oc4ccc(C(F)(F)F)cn4)ccc3n2)C1` [Example 198, (3-hydroxy-3-methylazetidin-1-yl)(6-{[5-(trifluoromethyl)pyridin-2-yl]oxy}quinolin-2-yl)methanone] are within 1.5-fold of each other in IC50: 3260 nM for the first, 2210 nM for the second.

`O=C(c1ccc2cc(Oc3ccc(C(F)(F)F)nc3)ccc2n1)N1CCC(N2CCOCC2)CC1` [Example 526, [4-(morpholin-4-yl)piperidin-1-yl](6-{[6-(trifluoromethyl)pyridin-3-yl]oxy}quinolin-2-yl)methanone] and `O=C(c1ccc2cc(Oc3ccc(C(F)(F)F)nc3)ccc2n1)N1CCN[C@H](CO)C1` [Example 545, [(3S)-3-(hydroxymethyl)piperazin-1-yl](6-{[6-(trifluoromethyl)pyridin-3-yl]oxy}quinolin-2-yl)methanone] are within 1.5-fold of each other in IC50: 3090 nM for the first, 3700 nM for the second.

`O=C(NC[C@@H]1CCCO1)c1ccc2cc(Oc3ccc(C(F)(F)F)cn3)ccc2n1` [Example 394, N-[(2S)-tetrahydrofuran-2-ylmethyl]-6-{[5-(trifluoromethyl)pyridin-2-yl]oxy}quinoline-2-carboxamide] and `O=C(NC[C@H]1CCCO1)c1ccc2cc(Oc3ccc(C(F)(F)F)cn3)ccc2n1` [Example 409, N-[(2R)-tetrahydrofuran-2-ylmethyl]-6-{[5-(trifluoromethyl)pyridin-2-yl]oxy}quinoline-2-carboxamide] are within 1.5-fold of each other in IC50: 443 nM for the first, 403 nM for the second.

Compared with `O=C(c1ccc2cc(Oc3nnc(C(F)(F)F)s3)ccc2n1)N1CCNCC1` [Example 320, piperazin-1-yl(6-{[5-(trifluoromethyl)-1,3,4-thiadiazol-2-yl]oxy}quinolin-2-yl)methanone], `CN1CCCN(C(=O)c2ccc3cc(Oc4ccc(C(F)(F)F)cn4)ccc3n2)CC1` [Example 260, (4-methyl-1,4-diazepan-1-yl)(6-{[5-(trifluoromethyl)pyridin-2-yl]oxy}quinolin-2-yl)methanone] is 16-fold lower in IC50: 17100 nM for the first, 1040 nM for the second. The second is the more potent here.

Going from `O=C(c1ccc2cc(Oc3ccc(C(F)(F)F)cn3)ccc2n1)N1CC2(C1)OCCO2` [Example 476, 5,8-dioxa-2-azaspiro[3.4]oct-2-yl(6-{[5-(trifluoromethyl)pyridin-2-yl]oxy}quinolin-2-yl)methanone] to `N#CCCCN1CCN(C(=O)c2ccc3cc(Oc4ccc(C(F)(F)F)cn4)ccc3n2)CC1` [Example 472, 4-{4-[(6-{[5-(trifluoromethyl)pyridin-2-yl]oxy}quinolin-2-yl)carbonyl]piperazin-1-yl}butanenitrile], the IC50 rises from 3920 nM to 7760 nM (2-fold). The first is the more potent here.

`N#Cc1ccc(Oc2ccc3nc(C(=O)NCCCN4CCOCC4)ccc3c2)cc1` [Example 87, 6-(4-cyanophenoxy)-N-[3-(morpholin-4-yl)propyl]quinoline-2-carboxamide] and `O=C(NC[C@@H]1CCCN1)c1ccc2cc(Oc3ccc(C(F)(F)F)cn3)ccc2n1` [Example 363, N-[(2S)-pyrrolidin-2-ylmethyl]-6-{[5-(trifluoromethyl)pyridin-2-yl]oxy}quinoline-2-carboxamide] are within 1.5-fold of each other in IC50: 1230 nM for the first, 1190 nM for the second.

First: CS(=O)(=O)C1CN(C(=O)c2ccc3cc(Oc4ccc(C(F)(F)F)nc4)ccc3n2)C1 [Example 534, [3-(methylsulfonyl)azetidin-1-yl](6-{[6-(trifluoromethyl)pyridin-3-yl]oxy}quinolin-2-yl)methanone]
Second: O=C(NCC1CN(C(=O)c2ccc3cc(Oc4ccc(C(F)(F)F)cn4)ccc3n2)CC1F)OCc1ccccc1 (stereo not drawn) [Example 492, benzyl ({4-fluoro-1-[(6-{[5-(trifluoromethyl)pyridin-2-yl]oxy}quinolin-2-yl)carbonyl]pyrrolidin-3-yl}methyl)carbamate]
The IC50 of the first is 2.3-fold higher: 1970 nM for the first, 858 nM for the second. The second is the more potent here.

Going from `COCCNC(=O)CN(C)C(=O)c1ccc2cc(Oc3ccc(C(F)F)cn3)ccc2n1` [Example 457, 6-{[5-(difluoromethyl)pyridin-2-yl]oxy}-N-{2-[(2-methoxyethyl)amino]-2-oxoethyl}-N-methylquinoline-2-carboxamide] to `CC(NC(=O)c1ccc2cc(Oc3ccc(C(F)(F)F)cn3)ccc2n1)C(=O)N(C)C` (stereo not drawn) [Example 579, N-[1-(dimethylamino)-1-oxopropan-2-yl]-6-{[5-(trifluoromethyl)pyridin-2-yl]oxy}quinoline-2-carboxamide], the IC50 falls from greater than 20000 nM to 1690 nM.

First: O=C(c1ccc2cc(Oc3ccc(C(F)(F)F)cn3)ccc2n1)N1CCN(c2cnccn2)CC1 [Example 268, [4-(pyrazin-2-yl)piperazin-1-yl](6-{[5-(trifluoromethyl)pyridin-2-yl]oxy}quinolin-2-yl)methanone]
Second: O=C(NCCNc1ccccn1)c1ccc2cc(Oc3ccc(C(F)(F)F)cn3)ccc2n1 [Example 422, N-[2-(pyridin-2-ylamino)ethyl]-6-{[5-(trifluoromethyl)pyridin-2-yl]oxy}quinoline-2-carboxamide]
The IC50 of the first is 4.8-fold higher: 2980 nM for the first, 617 nM for the second. The second is the more potent here.

Same assay, conditions: read-out: FRET-Membrane Potential Nav1.7 IC50

Compared with `O=C1CC(NC(=O)c2ccc3cc(Oc4ccc(C(F)(F)F)nc4)ccc3n2)C1` [Example 556, N-(3-oxocyclobutyl)-6-{[6-(trifluoromethyl)pyridin-3-yl]oxy}quinoline-2-carboxamide], `CN(CC(=O)NC1CC1)C(=O)c1ccc2cc(Oc3ccc(C(F)(F)F)nc3)ccc2n1` [Example 522, N-[2-(cyclopropylamino)-2-oxoethyl]-N-methyl-6-{[6-(trifluoromethyl)pyridin-3-yl]oxy}quinoline-2-carboxamide] is 3.8-fold higher in IC50: 2810 nM for the first, 10700 nM for the second. The first is the more potent here.

Compared with `N#Cc1ccc(Oc2ccc3nc(C(=O)NCCN4CCCCC4)ccc3c2)cc1` [Example 82, 6-(4-cyanophenoxy)-N-[2-(piperidin-1-yl)ethyl]quinoline-2-carboxamide], `N#Cc1ccc(Oc2ccc3nc(C(=O)NCCN4CCOCC4)ccc3c2)cc1` [Example 86, 6-(4-cyanophenoxy)-N-[2-(morpholin-4-yl)ethyl]quinoline-2-carboxamide] is 7.8-fold higher in IC50: 222 nM for the first, 1740 nM for the second.

Compared with `O=C(c1ccc2cc(Oc3ccc(C(F)(F)F)cn3)ccc2n1)N1CCC(O)C(F)(F)C1` (stereo not drawn) [Example 190, (3,3-difluoro-4-hydroxypiperidin-1-yl)(6-{[5-(trifluoromethyl)pyridin-2-yl]oxy}quinolin-2-yl)methanone], `O=C(c1ccc2cc(Oc3ccc(C(F)(F)F)cn3)ccc2n1)N1CCC[C@H]1CO` [Example 237, [(2S)-2-(hydroxymethyl)pyrrolidin-1-yl](6-{[5-(trifluoromethyl)pyridin-2-yl]oxy}quinolin-2-yl)methanone] is 3.9-fold lower in IC50: 12100 nM for the first, 3070 nM for the second.

Going from `N#Cc1ccc(Oc2ccc3nc(C(=O)NC4CCNC(=O)C4)ccc3c2)cc1` (stereo not drawn) [Example 484, 6-(4-cyanophenoxy)-N-(2-oxopiperidin-4-yl)quinoline-2-carboxamide] to `O=C(c1ccc2cc(Oc3ccc(C(F)F)cn3)ccc2n1)N1CCNCC1C(F)F` (stereo not drawn) [Example 430, [2-(difluoromethyl)piperazin-1-yl](6-{[5-(difluoromethyl)pyridin-2-yl]oxy}quinolin-2-yl)methanone], the IC50 rises from 879 nM to 3450 nM (3.9-fold).

Molecule `COCC1(F)CCN(C(=O)c2ccc3cc(Oc4ccc(C(F)(F)F)cn4)ccc3n2)CC1` [Example 618, [4-fluoro-4-(methoxymethyl)piperidin-1-yl](6-{[5-(trifluoromethyl)pyridin-2-yl]oxy}quinolin-2-yl)methanone] has an IC50 of 2690 nM.
